For assay [1], the system named is human non-small cell lung cancer cell line NCI-H460. The assay can be described thus: Cell proliferation inhibition test by sensitivity-enhancing to ionizing radiation (Cell Titer Glo). The assay is classed as cell-based. The following applies: concentration in which SER became 2, NCI-H460 cells, ionizing radiation 2 Gy, cultured 120 hour. The procedure, abridged: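 Cells seeded at 2×10^3 cells/mL in RPMI-1640 with 10% FBS; after 24 h, compound added (0.1% DMSO), and 30 min later half the plates irradiated at 2 Gy. After 120 hour at 37° C, viability by Cell Titer Glo luminescence; SER2 is the concentration giving SER of 2 by sigmoidal fit.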

The target of assay [2] is T1, ATM (Homo sapiens, UniProt Q13315).
T1 construct: detecting phosphorylation of Chk2 in a human non-small cell lung cancer cell line NCI-H460 (ATCC company); host or cells: NCI-H460 human non-small cell lung cancer cells
T1 sequence (Q13315 whole entry): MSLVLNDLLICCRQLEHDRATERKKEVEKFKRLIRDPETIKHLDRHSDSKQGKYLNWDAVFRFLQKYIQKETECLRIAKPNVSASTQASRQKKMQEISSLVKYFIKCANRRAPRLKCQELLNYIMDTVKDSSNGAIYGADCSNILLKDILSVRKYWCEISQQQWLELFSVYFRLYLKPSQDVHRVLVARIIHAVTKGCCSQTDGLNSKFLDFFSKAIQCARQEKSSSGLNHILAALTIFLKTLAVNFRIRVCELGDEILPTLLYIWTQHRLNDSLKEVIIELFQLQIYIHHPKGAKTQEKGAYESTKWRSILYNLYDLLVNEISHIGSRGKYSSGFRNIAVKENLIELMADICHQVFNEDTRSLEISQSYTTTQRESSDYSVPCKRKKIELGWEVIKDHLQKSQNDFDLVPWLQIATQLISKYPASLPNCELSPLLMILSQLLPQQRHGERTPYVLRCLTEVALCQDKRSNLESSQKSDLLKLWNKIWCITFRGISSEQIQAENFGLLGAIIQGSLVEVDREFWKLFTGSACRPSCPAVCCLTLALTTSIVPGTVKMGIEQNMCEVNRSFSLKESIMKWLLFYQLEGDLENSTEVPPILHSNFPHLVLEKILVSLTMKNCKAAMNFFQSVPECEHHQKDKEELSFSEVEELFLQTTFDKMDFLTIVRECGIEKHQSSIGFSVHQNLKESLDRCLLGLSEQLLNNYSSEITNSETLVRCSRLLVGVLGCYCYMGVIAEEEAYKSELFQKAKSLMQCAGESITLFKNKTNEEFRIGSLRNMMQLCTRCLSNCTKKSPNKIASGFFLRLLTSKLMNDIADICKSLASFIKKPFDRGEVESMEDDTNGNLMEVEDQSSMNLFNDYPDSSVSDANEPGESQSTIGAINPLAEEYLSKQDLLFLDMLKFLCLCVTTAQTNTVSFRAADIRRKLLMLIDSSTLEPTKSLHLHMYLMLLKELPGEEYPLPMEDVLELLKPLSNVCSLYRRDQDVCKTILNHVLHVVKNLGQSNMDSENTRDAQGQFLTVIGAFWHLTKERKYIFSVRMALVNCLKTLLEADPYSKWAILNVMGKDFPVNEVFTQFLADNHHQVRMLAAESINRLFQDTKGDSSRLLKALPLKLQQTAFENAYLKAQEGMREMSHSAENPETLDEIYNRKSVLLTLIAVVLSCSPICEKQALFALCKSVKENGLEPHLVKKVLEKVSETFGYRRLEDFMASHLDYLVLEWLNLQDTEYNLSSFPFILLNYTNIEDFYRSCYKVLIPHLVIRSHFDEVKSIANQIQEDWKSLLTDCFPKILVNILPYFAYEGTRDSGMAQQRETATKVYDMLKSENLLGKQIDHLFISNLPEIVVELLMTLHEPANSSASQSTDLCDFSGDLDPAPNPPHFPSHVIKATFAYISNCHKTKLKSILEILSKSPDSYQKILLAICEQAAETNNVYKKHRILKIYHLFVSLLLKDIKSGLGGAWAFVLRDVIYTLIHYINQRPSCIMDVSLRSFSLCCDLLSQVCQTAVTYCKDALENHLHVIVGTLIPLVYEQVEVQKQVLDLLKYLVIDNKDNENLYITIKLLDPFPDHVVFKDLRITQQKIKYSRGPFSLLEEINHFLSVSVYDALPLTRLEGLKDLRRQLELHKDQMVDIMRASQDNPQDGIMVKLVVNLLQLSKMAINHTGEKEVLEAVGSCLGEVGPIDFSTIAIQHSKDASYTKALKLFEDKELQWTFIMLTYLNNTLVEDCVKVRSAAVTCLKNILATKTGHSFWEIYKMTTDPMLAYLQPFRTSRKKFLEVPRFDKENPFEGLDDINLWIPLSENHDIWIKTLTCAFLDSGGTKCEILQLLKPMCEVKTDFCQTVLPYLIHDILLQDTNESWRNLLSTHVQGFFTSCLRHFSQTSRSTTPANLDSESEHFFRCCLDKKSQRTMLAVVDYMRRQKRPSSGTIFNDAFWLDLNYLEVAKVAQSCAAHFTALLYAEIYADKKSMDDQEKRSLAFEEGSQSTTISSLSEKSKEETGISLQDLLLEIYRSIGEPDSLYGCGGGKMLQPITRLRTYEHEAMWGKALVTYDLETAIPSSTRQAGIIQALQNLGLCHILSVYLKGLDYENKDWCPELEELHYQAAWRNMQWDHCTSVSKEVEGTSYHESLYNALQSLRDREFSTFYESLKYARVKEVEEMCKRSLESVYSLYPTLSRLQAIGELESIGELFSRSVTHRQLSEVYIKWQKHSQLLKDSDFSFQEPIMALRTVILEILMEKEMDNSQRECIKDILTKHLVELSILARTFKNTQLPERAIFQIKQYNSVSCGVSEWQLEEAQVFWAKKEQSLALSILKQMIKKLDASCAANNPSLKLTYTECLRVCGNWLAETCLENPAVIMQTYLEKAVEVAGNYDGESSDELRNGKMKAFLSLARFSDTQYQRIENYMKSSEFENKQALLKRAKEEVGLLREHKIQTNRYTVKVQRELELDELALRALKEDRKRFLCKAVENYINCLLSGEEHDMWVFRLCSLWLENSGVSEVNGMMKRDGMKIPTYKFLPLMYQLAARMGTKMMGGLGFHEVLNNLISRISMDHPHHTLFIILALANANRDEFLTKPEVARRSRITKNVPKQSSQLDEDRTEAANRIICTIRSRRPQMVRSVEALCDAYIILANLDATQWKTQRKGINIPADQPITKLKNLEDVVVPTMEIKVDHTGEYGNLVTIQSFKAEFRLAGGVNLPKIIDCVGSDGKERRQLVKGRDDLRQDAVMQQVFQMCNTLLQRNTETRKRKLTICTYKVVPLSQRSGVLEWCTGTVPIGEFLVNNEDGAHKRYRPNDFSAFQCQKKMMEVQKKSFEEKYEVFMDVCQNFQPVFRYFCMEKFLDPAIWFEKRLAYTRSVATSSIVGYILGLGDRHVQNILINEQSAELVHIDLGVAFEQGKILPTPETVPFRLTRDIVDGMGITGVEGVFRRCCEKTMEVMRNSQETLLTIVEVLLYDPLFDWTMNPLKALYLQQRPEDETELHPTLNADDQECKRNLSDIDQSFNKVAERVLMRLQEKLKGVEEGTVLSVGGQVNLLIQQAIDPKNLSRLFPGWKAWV
The assay can be described thus: ATM inhibition test (phosphorylation of Chk2 generated by ionizing radiation, AlphaScreen SureFire). The format is cell-based. Particulars: phosphorylated Chk2 in NCI-H460 cells, ionizing radiation 8Gy, 1 hour after test compound treatment; read-out: ATM inhibitory activity. Summed up:
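NCI-H460 cells, compound 1 h pre-treatment, 8Gy IR, further 1 h at 37° C in 5% CO2. Read-out: phospho-Chk2 via AlphaScreen SureFire. % inhibition relative to IR-induced signal window (irradiated vs non-irradiated drug-free wells).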
(In general: In Alpha technology, singlet oxygen from a donor bead excites a nearby acceptor bead.)

As to `O=c1cc(N2CCOCC2)cc(-c2cccc3c2Sc2ccc(NCCN4CCCCC4)cc2S3)[nH]1` [Example 1-10-10], the SER2 (concentration at which the radiation sensitivity-enhancement ratio reaches 2) in assay [1] (Homo sapiens, NCI-H460, 120 h) fell in the range of 100 to 500 nM. The IC50 in assay [2] is below 0.1 µM.
The corresponding values for `Cc1ccc(C(Nc2ccc3c(c2)Sc2cccc(-c4cc(N5CCOCC5)cc(=O)[nH]4)c2S3)[C@H]2CN(C(=O)CN(C)C)CCO2)nc1` (single isomer, unassigned) [Example 10-1] are below 100 nM and 0.1 to 0.5 µM.
The corresponding values for `COc1ccc(CNc2ccc3c(c2)Sc2cccc(-c4cc(N5CCOCC5)cc(=O)[nH]4)c2O3)nc1` [Example 4-8-17, 6-(8-(((5-Methoxypyridin-2-yl)methyl)amino)phenoxathiin-4-yl)-4-morpholino pyridin-2(1H)-one] are 100 to 500 nM and below 0.1 µM.
The corresponding values for `Cc1ccnc(C(CO)Nc2ccc3c(c2)Sc2cccc(-c4cc(N5CCOCC5)cc(=O)[nH]4)c2S3)c1` (centres unmarked) [Example 1-12-65, 6-(7-((2-Hydroxy-1-(4-methylpyridin-2-yl)ethyl)amino)thianthren-1-yl)-4-morpholino pyridin-2(1H)-one] are 100 to 500 nM and below 0.1 µM.
For `O=c1cc(N2CCOCC2)cc(-c2cccc3c2Oc2ccc(NCc4cc(-n5cccc5)ccn4)cc2C3)[nH]1` [Example 2-2-71, 6-(7-(((4-(1H-Pyrrol-1-yl)pyridin-2-yl)methyl)amino)-9H-xanthen-4-yl)-4-morpholino pyridin-2(1H)-one], the SER2 (concentration at which the radiation sensitivity-enhancement ratio reaches 2) in assay [1] (Homo sapiens, NCI-H460, 120 h) lay within 100 to 500 nM. Moreover, the IC50 in assay [2] is below 0.1 µM.
The corresponding values for `Cc1cccc(C(CO)Nc2ccc3c(c2)Cc2cccc(-c4cc(N5CCOCC5)cc(=O)[nH]4)c2O3)n1` (single isomer, unassigned) [Example 2-14-92-2, 6-(7-((2-hydroxy-1-(6-methylpyridin-2-yl)ethyl)amino)-9H-xanthen-4-yl)-4-morpholinopyridin-2(1H)-one] are below 100 nM and 0.1 to 0.5 µM.
For `Cc1cnc(C(C)Nc2ccc3c(c2)Cc2cccc(-c4cc(N5CCOCC5)cc(=O)[nH]4)c2O3)nc1` (centres unmarked) [Example 2-14-80, 6-(7-((1-(5-Methylpyrimidin-2-yl)ethyl)amino)-9H-xanthen-4-yl)-4-morpholino pyridin-2 (1H)-one], in assay [1] (Homo sapiens, NCI-H460, 120 h), the SER2 (concentration at which the radiation sensitivity-enhancement ratio reaches 2) was 100 to 500 nM. The IC50 in assay [2] was below 0.1 µM.
The corresponding values for `COCCN1CCC(Nc2ccc3c(c2)Sc2cccc(-c4cc(N5CCOCC5)cc(=O)[nH]4)c2S3)CC1` [Example 1-26-1, 6-(7-((1-(2-methoxyethyl)piperidin-4-yl)amino)thianthren-1-yl)-4-morpholinopyridin-2(1H)-one] are 100 to 500 nM and below 0.1 µM.
The corresponding values for `O=c1cc(N2CCOCC2)cc(-c2cccc3c2Oc2ccc(NCc4ccc(F)nc4)cc2C3)[nH]1` [Example 2-2-11, 6-(7-(((6-Fluoropyridin-3-yl)methyl)amino)-9H-xanthen-4-yl)-4-morpholino pyridin-2 (1H)-one] are 100 to 500 nM and below 0.1 µM.
For `Cc1ccc(C(Nc2ccc3c(c2)Sc2cccc(-c4cc(N5CCOCC5)cc(=O)[nH]4)c2S3)[C@H]2CN(CCN(C)C)CCO2)nc1` (single isomer, unassigned) [Example 10-2], the SER2 (concentration at which the radiation sensitivity-enhancement ratio reaches 2) in assay [1] (Homo sapiens, NCI-H460, 120 h) was below 100 nM. In assay [2], the IC50 was below 0.1 µM.
The corresponding values for `COc1cnc(CNc2ccc3c(c2)Cc2cccc(-c4cc(N5CCOCC5)cc(=O)[nH]4)c2O3)cn1` [Example 2-2-36, 6-(7-(((5-Methoxypyrazin-2-yl)methyl)amino)-9H-xanthen-4-yl)-4-morpholino pyridin-2(1H)-one] are 500 to 2000 nM and 0.1 to 0.5 µM.
The corresponding values for `O=c1cc(N2CCOCC2)cc(-c2cccc3c2Sc2ccc(NC4CCCC4N4CCOCC4)cc2S3)[nH]1` (single isomer, unassigned) [Example 1-16-1-2, 4-morpholino-6-(7-((2-morpholinocyclopentyl)amino)thianthren-1-yl)pyridin-2(1H)-one] are below 100 nM and below 0.1 µM.
The corresponding values for `O=c1cc(N2CCOCC2)cc(-c2cccc3c2Oc2ccc(NCc4cncc(N5CCC5)c4)cc2C3)[nH]1` [Example 2-2-69, 6-(7-(((5-(Azetidin-1-yl)pyridin-3-yl)methyl)amino)-9H-xanthen-4-yl)-4-morpholino pyridin-2(1H)-one] are 500 to 2000 nM and below 0.1 µM.
With `O=c1cc(N2CCOCC2)cc(-c2cccc3c2Oc2ccc(NCc4cc(C5CC5)ccn4)cc2C3)[nH]1` [Example 2-13-10, 6-(7-(((4-Cyclopropylpyridin-2-yl)methyl)amino)-9H-xanthen-4-yl)-4-morpholino pyridin-2(1H)-one], the SER2 (concentration at which the radiation sensitivity-enhancement ratio reaches 2) in assay [1] (Homo sapiens, NCI-H460, 120 h) lay within 100 to 500 nM. For the same molecule, in assay [2], the IC50 is below 0.1 µM.
On the same counts, the results for `O=c1cc(N2CCOCC2)cc(-c2cccc3c2Oc2ccc(NCc4ccc(Cl)nc4)cc2S3)[nH]1` [Example 4-8-25, 6-(8-(((6-Chloropyridin-3-yl)methyl)amino)phenoxathiin-4-yl)-4-morpholino pyridin-2(1H)-one] are 100 to 500 nM and below 0.1 µM.
On to `COc1ccnc(CNc2ccc3c(c2)Sc2cccc(-c4cc(N5CCOCC5)cc(=O)[nH]4)c2S3)c1` [Example 1-12-4], for which the SER2 (concentration at which the radiation sensitivity-enhancement ratio reaches 2) in assay [1] (Homo sapiens, NCI-H460, 120 h) was 100 to 500 nM. The IC50 in assay [2] was below 0.1 µM.
`Cc1cnc(C(C)Nc2ccc3c(c2)Sc2cccc(-c4cc(N5CCOCC5)cc(=O)[nH]4)c2S3)cn1` (single isomer, unassigned) [Example 1-12-137-2, 6-(7-((1-(5-methylpyrazin-2-yl)ethyl)amino)thianthren-1-yl)-4-morpholinopyridin-2(1H)-one]: the SER2 (concentration at which the radiation sensitivity-enhancement ratio reaches 2) in assay [1] was in the range of 100 to 500 nM. Further, the IC50 in assay [2] is below 0.1 µM.
Turning to `COc1ccnc(CNc2ccc3c(c2)Cc2cccc(-c4cc(N5CCOCC5)cc(=O)[nH]4)c2O3)c1` [Example 2-2-38, 6-(7-(((4-Methoxypyridin-2-yl)methyl)amino)-9H-xanthen-4-yl)-4-morpholino pyridin-2(1H)-one], the SER2 (concentration at which the radiation sensitivity-enhancement ratio reaches 2) in assay [1] (Homo sapiens, NCI-H460, 120 h) was 100 to 500 nM. Besides, the IC50 in assay [2] is below 0.1 µM.
The corresponding values for `O=c1cc(N2CCOCC2)cc(-c2cccc3c2Sc2ccc(NCc4cc(C5CC5)ccn4)cc2S3)[nH]1` [Example 1-12-14, 6-(7-(((4-Cyclopropylpyridin-2-yl)methyl)amino)thianthren-1-yl)-4-morpholino pyridin-2(1H)-one] are 100 to 500 nM and below 0.1 µM.
The corresponding values for `Cc1ccnc(C(CF)Nc2ccc3c(c2)Sc2cccc(-c4cc(N5CCOCC5)cc(=O)[nH]4)c2S3)n1` (centres unmarked) [Example 1-12-89, 6-(7-((2-Fluoro-1-(4-methylpyrimidin-2-yl)ethyl)amino)thianthren-1-yl)-4-morpholino pyridin-2(1H)-one] are 100 to 500 nM and below 0.1 µM.
On to `CCCN1CCC(Nc2ccc3c(c2)Cc2cccc(-c4cc(N5CCOCC5)cc(=O)[nH]4)c2O3)CC1` [Example 2-28-32, 4-Morpholino-6-(7-((1-propylpiperidin-4-yl)amino)-9H-xanthen-4-yl) pyridin-2(1H)-one], for which, in assay [1] (Homo sapiens, NCI-H460, 120 h), the SER2 (concentration at which the radiation sensitivity-enhancement ratio reaches 2) fell in the range of 500 to 2000 nM. The IC50 in assay [2] was below 0.1 µM.
On the same counts, the results for `Cc1ccc(C(CCC2OCCCO2)Nc2ccc3c(c2)Sc2cccc(-c4cc(N5CCOCC5)cc(=O)[nH]4)c2S3)nc1` (centres unmarked) [Example 1-12-131, 6-(7-((3-(1,3-Dioxan-2-yl)-1-(5-methylpyridin-2-yl)propyl)amino)thianthren-1-yl)-4-morpholino pyridin-2 (1H)-one] are 100 to 500 nM and below 0.1 µM.
As to `CC1COCCN1CCNc1ccc2c(c1)Sc1cccc(-c3cc(N4CCOCC4)cc(=O)[nH]3)c1S2` (centres unmarked) [Example 1-16-7, 6-(7-((2-(3-Methylmorpholino)ethyl)amino)thianthren-1-yl)-4-morpholinopyridin-2(1H)-one], the SER2 (concentration at which the radiation sensitivity-enhancement ratio reaches 2) in assay [1] (Homo sapiens) lay in the range of 100 to 500 nM. In assay [2], the IC50 is below 0.1 µM.
On to `COC[C@H](CN1CCC(C(F)(F)F)CC1)Nc1ccc2c(c1)Sc1cccc(-c3cc(N4CCOCC4)cc(=O)[nH]3)c1S2` [Example 1-46-8, (S)-6-(7-((1-Methoxy-3-(4-(trifluoromethyl)piperidin-1-yl)propan-2-yl)amino)thianthren-1-yl)-4-morpholino pyridin-2(1H)-one], for which, in assay [1] (Homo sapiens, NCI-H460, 120 h), the SER2 (concentration at which the radiation sensitivity-enhancement ratio reaches 2) fell in the range of 100 to 500 nM. The IC50 in assay [2] was below 0.1 µM.
For the molecule `Cc1ccc(C(Nc2ccc3c(c2)Sc2cccc(-c4cc(N5CCOCC5)cc(=O)[nH]4)c2S3)C2CCN(C)CC2)nc1` (single isomer, unassigned) [Example 1-51-1, 6-(7-(((1-methylpiperidin-4-yl)(5-methylpyridin-2-yl)methyl)amino)thianthren-1-yl)-4-morpholinopyridin-2(1H)-one], the SER2 (concentration at which the radiation sensitivity-enhancement ratio reaches 2) in assay [1] was below 100 nM. For the same molecule, in assay [2], the IC50 is below 0.1 µM.

Values taken from US9586951B2 (FUJIFILM Corporation, priority 2013, dated 2017).
